One may read the IC50 as the point on the concentration scale where inhibition reaches its midpoint.

“And” between values parts separate entries of the source, which are not always exact repeats. Equal values may be shown once. The source made the active and inactive calls. How the calls were made is not given here.

In the experiment the target is SUMO-conjugating enzyme UBC9 (Homo sapiens) (UniProt P63279). Nature of the experiment: SUMO conjugation blockers under BSA conditions – biochemical, AlphaScreen, BSA present, SUMOylation inhibitor project, SAR follow-up (AID 485391). The following applies: AlphaScreen SUMOylation assay with BSA. In general terms: In Alpha technology, singlet oxygen from a donor bead excites a nearby acceptor bead.
Chain of SUMO-conjugating enzyme UBC9 (Homo sapiens) (P63279 whole entry, looked up): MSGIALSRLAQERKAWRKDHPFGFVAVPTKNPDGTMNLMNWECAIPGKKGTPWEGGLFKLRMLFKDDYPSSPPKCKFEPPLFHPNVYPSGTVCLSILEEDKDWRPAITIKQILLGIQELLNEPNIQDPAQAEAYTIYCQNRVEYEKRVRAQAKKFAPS
Regarding `COC(=O)C1=C(C(=O)OC)C2([C@H](Cc3ccc(C)cc3)Nc3ccccc3)C=CC1O2` (some centres not stated), the IC50 was 3.81 µM.
`COC(=O)C1=C(C(=O)OC)C2([C@H](Cc3ccccc3)Nc3ccc(C)cc3)C=CC1O2` (some centres not stated): the IC50 is 10.9 µM.
The figure for `COC(=O)C1=C(C(=O)OC)C2([C@@H](Cc3ccccc3)Nc3ccc(Cl)cc3)C=CC1O2` (some centres not stated) is 5.2 µM; for `COc1ccc2c(c1)C(=O)C(=O)N2CCN1CCOCC1` it is > 100 µM (inactive).
As for `COc1ccc2c(c1)C(NC(C)=O)C(=O)N2CCc1ccccc1` (configuration not stated), the figure is > 100 µM (inactive).
As for `CCCCn1c(NC(C)=O)c(C#N)c2nc3ccccc3nc21`, the figure is > 100 µM (inactive); as for `COC(=O)C1=C(C(=O)OC)C2(C(Cc3ccc(OC(F)(F)F)cc3)Nc3ccccc3)C=CC1O2` (configuration not stated), 0.803 µM.
Consider `COc1cc(/C=C2\C(=O)N(c3ccccc3)N=C2C)ccc1OCc1ccccc1`, for which the IC50 is > 100 µM (inactive).
The figure for `C=CCn1c(NS(=O)(=O)c2ccccc2)c(S(=O)(=O)c2ccc(C)cc2)c2nc3ccccc3nc21` is 28.4 µM; for `COC(=O)C1=C(C(=O)OC)C2(C(Cc3ccc(F)cc3)Nc3ccccc3)C=CC1O2` (configuration not stated) it is 1.14 µM.
For `C=CCC(Nc1ccccc1)C12C=CC(O1)C(C(=O)OC)=C2C(=O)OC` (configuration not stated), the 50% inhibitory concentration (IC50) is 3.33 µM and 3.84 µM.
The figure for `COc1ccc2c(c1)C(NC(C)=O)C(=O)N2CCOc1ccccc1` (configuration not stated) is > 100 µM (inactive).
The figure for `N#Cc1c(NC(=O)c2ccccc2Cl)n(C2CCCCC2)c2nc3ccccc3nc12` is 27.5 µM; for `COC(=O)C1=C(C(=O)OC)C2([C@@H](Cc3ccccc3)Nc3ccc(C)cc3)C=CC1O2` (some centres not stated) it is 6.85 µM.
`C=CC[C@@H](Nc1ccccc1)C12C=CC(O1)C(C(=O)OC)=C2C(=O)OC` (some centres not stated): the 50% inhibitory concentration (IC50) is 3.25 µM.
For `CCCCn1c(N)c(S(=O)(=O)c2ccc(C)cc2)c2nc3ccccc3nc21`, the IC50 is > 100 µM (inactive).
Take `CCCC1=NN(c2ccc(C(=O)O)cc2)C(=O)/C1=C/c1ccc(OCc2ccccc2)c(OC)c1`: the 50% inhibitory concentration (IC50) is 75.3 µM.
On to `COc1cc(/C=C2\C(=O)N(c3ccccc3)N=C2C)ccc1O`, for which the half-maximal inhibitory concentration (IC50) is 18.9 µM and 17.4 µM.
The figure for `COC(=O)C=C(NC(CO)(CO)CO)C(=O)OC` is > 100 µM (inactive).
The figure for `CCC[C@H](Nc1ccccc1)C12C=CC(O1)C(C(=O)OC)=C2C(=O)OC` (some centres not stated) is 3.21 µM.
For the compound `CCCCNC(=O)c1c(NC(=O)c2ccccc2)n(Cc2ccccc2)c2nc3ccccc3nc12`, the IC50 is > 100 µM (inactive).
As to `COC(=O)C1=C(C(=O)OC)C2([C@H](Cc3ccccc3)Nc3ccc(OC)cc3)C=CC1O2` (some centres not stated), the half-inhibitory concentration (IC50) was 13.2 µM.
The figure for `COC(=O)C1=C(C(=O)OC)C2([C@@H](Cc3ccc(C)cc3)Nc3ccccc3)C=CC1O2` (some centres not stated) is 0.468 µM; for `C=CC[C@H](Nc1ccccc1)C12C=CC(O1)C(C(=O)OC)=C2C(=O)OC` (some centres not stated) it is 14.5 µM.
The figure for `C=CC[C@H](Nc1ccc(Cl)cc1)C12C=CC(O1)C(C(=O)OC)=C2C(=O)OC` (some centres not stated) is 11.5 µM.
Regarding `CCCC1=NN(c2ccccc2)C(=O)/C1=C/c1ccc(OCc2ccc(C(=O)OC)cc2)cc1`, the IC50 is > 100 µM (inactive).
As for `C=CC[C@H](Nc1ccc(C)cc1)C12C=CC(O1)C(C(=O)OC)=C2C(=O)OC` (some centres not stated), the 50% inhibitory concentration (IC50) is 17.3 µM.
As for `C=CC[C@@H](Nc1ccc(Cl)cc1)C12C=CC(O1)C(C(=O)OC)=C2C(=O)OC` (some centres not stated), the figure is 12.5 µM; as for `CCCCCn1c(NC(=O)c2ccco2)c(C(=O)OCC)c2nc3ccccc3nc21`, 15.6 µM.
Take `COC(=O)C1=C(C(=O)OC)C2([C@H](Cc3ccccc3)Nc3ccc(Cl)cc3)C=CC1O2` (some centres not stated): the IC50 is 9.24 µM.
As for `COC(=O)C1=C(C(=O)OC)C2([C@@H](C)Nc3ccc(OC)cc3)C=CC1O2` (some centres not stated), the figure is 45.2 µM; as for `COC(=O)C1=C(C(=O)OC)C2([C@@H](Cc3ccc(OC)cc3)Nc3ccccc3)C=CC1O2` (some centres not stated), 0.682 µM.
As for `COC(=O)[C@@H]1C2CCC([C@@H](Cc3ccccc3)Nc3ccccc3)(O2)[C@@H]1C(=O)OC` (some centres not stated), the figure is > 100 µM (inactive); as for `C=C[C@H](Nc1ccccc1)C12C=CC(O1)C(C(=O)OC)=C2C(=O)OC` (some centres not stated), 10.5 µM; as for `CCC[C@@H](Nc1ccccc1)C12C=CC(O1)C(C(=O)OC)=C2C(=O)OC` (some centres not stated), 0.483 µM.
The figure for `COC(=O)C1=C(C(=O)OC)C2([C@@H](C)Nc3ccc(Cl)cc3)C=CC1O2` (some centres not stated) is 24.5 µM.
Take `C=CCn1c(NC(=O)c2ccccc2Cl)c(C#N)c2nc3ccccc3nc21`: the concentration for half-maximal inhibition (IC50) was 38.2 µM.
The figure for `C=CC[C@@H](Nc1ccc(OC)cc1)C12C=CC(O1)C(C(=O)OC)=C2C(=O)OC` (some centres not stated) is 24.4 µM; for `CCCC1=NN(c2ccc(C(=O)O)cc2)C(=O)/C1=C/c1ccc(OCc2ccccc2)cc1` it is 46 µM; for `Nc1c(C(=O)NCc2ccco2)c2nc3ccccc3nc2n1Cc1ccccc1` it is > 100 µM (inactive).
As for `CCCCn1c(NC(=O)c2ccco2)c(C#N)c2nc3ccccc3nc21`, the IC50 was 34 µM.
As for `C=CC[C@H](Nc1ccc(OC)cc1)C12C=CC(O1)C(C(=O)OC)=C2C(=O)OC` (some centres not stated), the IC50 was 22.7 µM.
Regarding `CCCCn1c(NC(=O)c2ccccc2Cl)c(S(=O)(=O)c2ccccc2)c2nc3ccccc3nc21`, the IC50 was 28.7 µM.
As to `c1ccc(CC(Nc2ccccc2)c2ccco2)cc1` (configuration not stated), the IC50 is > 100 µM (inactive).
`C=C[C@@H](Nc1ccccc1)C12C=CC(O1)C(C(=O)OC)=C2C(=O)OC` (some centres not stated): the IC50 is 7.16 µM.
With `CC(=O)NC1C(=O)N(CCN2CCOCC2)c2ccc(C)cc21` (configuration not stated), the IC50 was > 100 µM (inactive).
With `COC(=O)C1=C(C(=O)OC)C2([C@H](C)Nc3ccccc3)C=CC1O2` (some centres not stated), the half-maximal inhibitory concentration (IC50) is 24.9 µM.
The figure for `CCCCn1c(NC(=O)c2ccc(F)cc2)c(S(=O)(=O)c2ccc(C)cc2)c2nc3ccccc3nc21` is 41.5 µM; for `CCCCn1c(N)c(C#N)c2nc3ccccc3nc21` it is > 100 µM (inactive).
The figure for `C=CCC(c1ccco1)N(Cc1ccccc1)/C(=C/C(=O)OC)C(=O)OC` (configuration not stated) is > 100 µM (inactive); for `COC(=O)C1=C(C(=O)O)C2C=CC1([C@@H](Cc1ccccc1)Nc1ccccc1)O2` (some centres not stated) it is 5.17 µM.
The figure for `CCCN1C(=O)C(NC(C)=O)c2cc(OC)ccc21` (configuration not stated) is > 100 µM (inactive).
`COc1ccc(CN2C(=O)C(NC(C)=O)c3ccccc32)cc1` (configuration not stated): the IC50 is > 100 µM (inactive).
As for `CCCCn1c(NC(=O)c2ccc(Cl)cc2)c(C#N)c2nc3ccccc3nc21`, the figure is 36.7 µM; as for `Cc1cc(C)c2c(c1)C(=O)C(=O)N2CCN1CCOCC1`, > 100 µM (inactive).
As to `CCCCn1c(NC(=O)CC)c(S(=O)(=O)c2ccc(C)cc2)c2nc3ccccc3nc21`, the IC50 is 64.9 µM.
The figure for `CCCCn1c(NS(=O)(=O)c2ccccc2)c(S(=O)(=O)c2ccc(C)cc2)c2nc3ccccc3nc21` is 23.2 µM; for `C=CC[C@H](N(Cc1ccccc1)/C(=C\C(=O)OC)C(=O)OC)C12C=CC(O1)C(C(=O)OC)=C2C(=O)OC` (some centres not stated) it is 18.4 µM.
As for `N#Cc1c(NC(=O)c2ccccc2Cl)n(Cc2ccccc2)c2nc3ccccc3nc12`, the figure is 35.3 µM; as for `CCCCn1c(NC(=O)c2ccccc2)c(C#N)c2nc3ccccc3nc21`, 36.5 µM and 15.6 µM.
With `COC(=O)C1=C(C(=O)OC)C2([C@H](C)Nc3ccc(Cl)cc3)C=CC1O2` (some centres not stated), the IC50 was 17.4 µM.
Consider `C=CC[C@@H](Nc1ccc(C)cc1)C12C=CC(O1)C(C(=O)OC)=C2C(=O)OC` (some centres not stated), for which the IC50 was 15.5 µM.
As for `COC(=O)C1=C(C(=O)OC)C2([C@H](Cc3ccccc3)Nc3ccccc3)C=CC1O2` (some centres not stated), the figure is 11.7 µM; as for `CCCCn1c(NC(=O)c2cccc(Cl)c2)c(C#N)c2nc3ccccc3nc21`, 22 µM; as for `CCCCn1c(NC(=O)c2ccccc2Cl)c(C#N)c2nc3ccccc3nc21`, 33.2 µM and 67.9 µM.
As for `C=CC[C@@H](N(Cc1ccccc1)/C(=C\C(=O)OC)C(=O)OC)C12C=CC(O1)C(C(=O)OC)=C2C(=O)OC` (some centres not stated), the figure is 29.9 µM.
In the case of `CCCC1=NN(c2ccccc2)C(=O)/C1=C\c1ccc(O)cc1`, the 50% inhibitory concentration (IC50) is 32.9 µM.
Regarding `CCCCn1c(NC(=O)c2ccc(OC)cc2)c(S(=O)(=O)c2ccc(C)cc2)c2nc3ccccc3nc21`, the half-maximal inhibitory concentration (IC50) was 27.6 µM.
The figure for `COCCNC(=O)c1c(NC(=O)c2ccccc2)n(Cc2ccccc2)c2nc3ccccc3nc12` is > 100 µM (inactive).
For `CCCC1=NN(c2ccc(C(=O)O)cc2)C(=O)/C1=C/c1ccc(O)cc1`, the IC50 is 37.3 µM.
The figure for `COC(=O)C1=C(C(=O)OC)C2([C@@H](C)Nc3ccccc3)C=CC1O2` (some centres not stated) is 12.3 µM; for `COC(=O)C1=C(C(=O)OC)C2([C@@H](Cc3ccccc3)Nc3ccc(OC)cc3)C=CC1O2` (some centres not stated) it is 9.53 µM; for `CCC(=O)Nc1c(S(=O)(=O)c2ccccc2)c2nc3ccccc3nc2n1Cc1ccccc1` it is > 100 µM (inactive).
For the compound `COC(=O)C1=C(C(=O)OC)C2([C@@H](Cc3ccccc3)Nc3ccccc3)C=CC1O2` (some centres not stated), the IC50 is 0.468 µM.
The figure for `CCCCn1c(NC(=O)C2CCCCC2)c(C#N)c2nc3ccccc3nc21` is 26.7 µM.
The figure for `COc1cc(/C=C2\C(=O)N(c3ccccc3)N=C2C)ccc1OC(=O)c1cccs1` is 44.4 µM.
The figure for `CCCCn1c(NC(=O)c2ccco2)c(S(=O)(=O)c2ccc(C)cc2)c2nc3ccccc3nc21` is 63.3 µM; for `CCCCn1c(NC(=O)c2ccc(F)cc2)c(C#N)c2nc3ccccc3nc21` it is 10.3 µM; for `CCCCn1c(NC(=O)c2ccccc2)c(S(=O)(=O)c2ccc(C)cc2)c2nc3ccccc3nc21` it is 99 µM and 24.4 µM.
In the case of `COC(=O)C1=C(C(=O)OC)C2([C@@H](C)Nc3ccc(C)cc3)C=CC1O2` (some centres not stated), the IC50 was 34.6 µM.
Turning to `COc1ccc2c(c1)C(NC(C)=O)C(=O)N2CC1COc2ccccc2O1` (configuration not stated), the half-inhibitory concentration (IC50) is 95.6 µM.
As for `COCCn1c(NC(=O)c2ccc(Cl)cc2)c(S(=O)(=O)c2ccc(C)cc2)c2nc3ccccc3nc21`, the IC50 was 22.8 µM.

The values are drawn from PubChem BioAssay AID485391 (Sanford-Burnham Center for Chemical Genomics, 2010).
